Columns and labels:
[1] = target: MARK2 (Homo sapiens (Human), UniProt Q7KZI7); assay: ActivX kinase probe assay (human PBMC); type: binding; settings: MARK2, read-out: percent inhibition
[2] = target: GSK3A (Homo sapiens (Human), UniProt P49840); assay: ActivX kinase probe assay (human PBMC); type: binding; settings: GSK3A, read-out: percent inhibition
[3] = target: MAP3K5 (Homo sapiens (Human), UniProt Q99683); assay: ActivX kinase probe assay (human PBMC); type: binding; settings: MAP3K5, read-out: percent inhibition
[4] = target: FAK (Homo sapiens (Human), UniProt Q05397); assay: ActivX kinase probe assay (human PBMC); type: binding; settings: FAK, read-out: percent inhibition
FAK, sequence (Q05397 whole entry, the tested form may be a part): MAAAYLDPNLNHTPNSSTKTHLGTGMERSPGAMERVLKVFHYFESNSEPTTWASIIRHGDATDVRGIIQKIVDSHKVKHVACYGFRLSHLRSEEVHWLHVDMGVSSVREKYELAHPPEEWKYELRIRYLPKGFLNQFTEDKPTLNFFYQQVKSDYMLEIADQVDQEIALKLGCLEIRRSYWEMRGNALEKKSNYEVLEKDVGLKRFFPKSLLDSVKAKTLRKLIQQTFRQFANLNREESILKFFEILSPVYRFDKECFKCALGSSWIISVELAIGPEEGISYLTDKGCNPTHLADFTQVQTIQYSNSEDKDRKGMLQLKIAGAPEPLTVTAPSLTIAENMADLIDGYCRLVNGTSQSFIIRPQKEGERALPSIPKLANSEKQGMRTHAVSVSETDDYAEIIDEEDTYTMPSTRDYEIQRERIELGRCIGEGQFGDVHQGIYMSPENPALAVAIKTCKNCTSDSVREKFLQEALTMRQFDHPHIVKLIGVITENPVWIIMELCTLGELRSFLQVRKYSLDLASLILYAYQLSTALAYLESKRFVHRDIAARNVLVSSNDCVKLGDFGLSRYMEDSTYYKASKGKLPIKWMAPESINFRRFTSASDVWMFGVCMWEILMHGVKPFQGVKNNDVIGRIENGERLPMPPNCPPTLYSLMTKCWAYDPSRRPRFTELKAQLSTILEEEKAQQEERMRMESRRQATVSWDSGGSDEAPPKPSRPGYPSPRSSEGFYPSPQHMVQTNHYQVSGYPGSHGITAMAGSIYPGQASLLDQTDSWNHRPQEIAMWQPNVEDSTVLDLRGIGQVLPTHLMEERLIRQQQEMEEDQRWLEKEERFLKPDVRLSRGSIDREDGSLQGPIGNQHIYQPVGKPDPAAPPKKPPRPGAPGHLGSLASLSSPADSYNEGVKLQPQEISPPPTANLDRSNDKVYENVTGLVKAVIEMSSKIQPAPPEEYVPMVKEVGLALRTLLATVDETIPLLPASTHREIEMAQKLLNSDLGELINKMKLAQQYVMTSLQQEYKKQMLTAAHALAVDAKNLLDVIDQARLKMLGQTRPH

[5] = target: JAK1 domain2 (Homo sapiens (Human), UniProt P23458); assay: ActivX kinase probe assay (human PBMC); type: binding; settings: JAK1 domain2, read-out: percent inhibition
[6] = target: MAP2K1 (Homo sapiens (Human), UniProt Q02750); assay: ActivX kinase probe assay (human PBMC); type: binding; settings: MAP2K1, read-out: percent inhibition
MAP2K1, sequence (Q02750 whole entry): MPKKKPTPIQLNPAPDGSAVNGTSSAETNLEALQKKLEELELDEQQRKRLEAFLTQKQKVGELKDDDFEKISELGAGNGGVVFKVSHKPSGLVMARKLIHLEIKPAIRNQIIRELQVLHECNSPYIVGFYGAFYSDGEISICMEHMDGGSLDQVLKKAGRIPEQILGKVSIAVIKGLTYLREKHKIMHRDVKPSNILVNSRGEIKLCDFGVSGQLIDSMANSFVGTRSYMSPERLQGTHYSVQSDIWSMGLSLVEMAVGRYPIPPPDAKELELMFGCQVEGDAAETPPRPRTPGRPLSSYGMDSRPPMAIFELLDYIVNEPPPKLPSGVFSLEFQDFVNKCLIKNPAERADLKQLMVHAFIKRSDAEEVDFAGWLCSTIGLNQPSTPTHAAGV

[7] = target: NEK9 (Homo sapiens (Human), UniProt Q8TD19); assay: ActivX kinase probe assay (human PBMC); type: binding; settings: NEK9, read-out: percent inhibition
[8] = target: RSK2 domain2 (Homo sapiens (Human), UniProt P51812); assay: ActivX kinase probe assay (human PBMC); type: binding; settings: RSK2 domain2, read-out: percent inhibition
[9] = target: PI4KB (Homo sapiens (Human), UniProt Q9UBF8); assay: ActivX kinase probe assay (human PBMC); type: binding; settings: PI4KB, read-out: percent inhibition
[10] = target: CDK5 (Homo sapiens (Human), UniProt Q00535); assay: ActivX kinase probe assay (human PBMC); type: binding; settings: CDK5, read-out: percent inhibition
CDK5, sequence (Q00535 whole entry): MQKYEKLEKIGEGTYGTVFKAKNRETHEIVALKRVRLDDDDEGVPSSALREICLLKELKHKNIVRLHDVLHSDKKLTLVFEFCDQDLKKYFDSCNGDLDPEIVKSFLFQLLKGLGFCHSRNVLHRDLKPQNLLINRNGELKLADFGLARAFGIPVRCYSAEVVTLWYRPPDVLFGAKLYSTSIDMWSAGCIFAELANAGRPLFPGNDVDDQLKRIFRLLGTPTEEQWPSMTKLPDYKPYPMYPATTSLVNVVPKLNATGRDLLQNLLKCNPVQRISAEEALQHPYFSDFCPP

[11] = target: Erk5 (Homo sapiens (Human), UniProt Q13164); assay: ActivX kinase probe assay (human PBMC); type: binding; settings: Erk5, read-out: percent inhibition
[12] = target: LOK (Homo sapiens (Human), UniProt O94804); assay: ActivX kinase probe assay (human PBMC); type: binding; settings: LOK, read-out: percent inhibition
LOK, sequence (O94804 whole entry): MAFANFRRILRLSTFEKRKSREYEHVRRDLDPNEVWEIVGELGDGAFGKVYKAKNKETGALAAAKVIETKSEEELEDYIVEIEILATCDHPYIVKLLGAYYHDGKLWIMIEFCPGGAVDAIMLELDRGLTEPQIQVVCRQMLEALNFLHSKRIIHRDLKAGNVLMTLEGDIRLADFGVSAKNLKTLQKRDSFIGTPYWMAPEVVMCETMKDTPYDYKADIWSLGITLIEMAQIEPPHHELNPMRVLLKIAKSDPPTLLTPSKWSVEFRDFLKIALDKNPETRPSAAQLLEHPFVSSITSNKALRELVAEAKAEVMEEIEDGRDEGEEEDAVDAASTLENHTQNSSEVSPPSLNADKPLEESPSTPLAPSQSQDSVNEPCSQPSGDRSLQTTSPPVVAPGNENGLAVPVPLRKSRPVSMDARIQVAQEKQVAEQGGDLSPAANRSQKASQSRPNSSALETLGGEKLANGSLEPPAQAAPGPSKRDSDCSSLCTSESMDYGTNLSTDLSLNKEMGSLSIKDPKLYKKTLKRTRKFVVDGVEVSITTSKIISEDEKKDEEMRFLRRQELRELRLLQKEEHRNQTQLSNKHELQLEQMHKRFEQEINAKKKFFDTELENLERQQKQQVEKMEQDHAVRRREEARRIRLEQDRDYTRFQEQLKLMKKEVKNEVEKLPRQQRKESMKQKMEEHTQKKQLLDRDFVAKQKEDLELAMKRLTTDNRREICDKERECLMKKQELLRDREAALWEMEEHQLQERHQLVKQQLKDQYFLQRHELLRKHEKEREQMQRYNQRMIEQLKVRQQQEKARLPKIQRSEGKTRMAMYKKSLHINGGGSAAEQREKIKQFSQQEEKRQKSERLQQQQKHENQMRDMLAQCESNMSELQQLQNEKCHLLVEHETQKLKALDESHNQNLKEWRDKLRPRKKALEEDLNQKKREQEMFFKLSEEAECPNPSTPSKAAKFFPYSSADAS

[13] = target: NDR1 (Homo sapiens (Human), UniProt Q15208); assay: ActivX kinase probe assay (human PBMC); type: binding; settings: NDR1, read-out: percent inhibition
NDR1, sequence (Q15208 whole entry): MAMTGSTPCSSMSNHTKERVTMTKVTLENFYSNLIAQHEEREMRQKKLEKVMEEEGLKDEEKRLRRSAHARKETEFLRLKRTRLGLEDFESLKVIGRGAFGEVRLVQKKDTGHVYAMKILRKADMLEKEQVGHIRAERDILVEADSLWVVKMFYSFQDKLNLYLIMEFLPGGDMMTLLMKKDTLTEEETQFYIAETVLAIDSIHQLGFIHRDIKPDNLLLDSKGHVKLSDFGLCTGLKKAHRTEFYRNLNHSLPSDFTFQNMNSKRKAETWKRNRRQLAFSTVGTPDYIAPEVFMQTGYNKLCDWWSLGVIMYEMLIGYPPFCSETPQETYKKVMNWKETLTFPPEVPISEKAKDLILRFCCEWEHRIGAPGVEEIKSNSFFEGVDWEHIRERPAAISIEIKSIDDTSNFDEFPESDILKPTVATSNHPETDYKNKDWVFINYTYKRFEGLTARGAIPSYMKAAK

[14] = target: PAN3 (Homo sapiens (Human), UniProt Q58A45); assay: ActivX kinase probe assay (human PBMC); type: binding; settings: PAN3, read-out: percent inhibition
[15] = tested on: AKT2, AKT3; assay: ActivX kinase probe assay (human PBMC); type: binding
[16] = target: ACK (Homo sapiens (Human), UniProt Q07912); assay: ActivX kinase probe assay (human PBMC); type: binding; settings: ACK, read-out: percent inhibition
ACK, sequence (Q07912 whole entry): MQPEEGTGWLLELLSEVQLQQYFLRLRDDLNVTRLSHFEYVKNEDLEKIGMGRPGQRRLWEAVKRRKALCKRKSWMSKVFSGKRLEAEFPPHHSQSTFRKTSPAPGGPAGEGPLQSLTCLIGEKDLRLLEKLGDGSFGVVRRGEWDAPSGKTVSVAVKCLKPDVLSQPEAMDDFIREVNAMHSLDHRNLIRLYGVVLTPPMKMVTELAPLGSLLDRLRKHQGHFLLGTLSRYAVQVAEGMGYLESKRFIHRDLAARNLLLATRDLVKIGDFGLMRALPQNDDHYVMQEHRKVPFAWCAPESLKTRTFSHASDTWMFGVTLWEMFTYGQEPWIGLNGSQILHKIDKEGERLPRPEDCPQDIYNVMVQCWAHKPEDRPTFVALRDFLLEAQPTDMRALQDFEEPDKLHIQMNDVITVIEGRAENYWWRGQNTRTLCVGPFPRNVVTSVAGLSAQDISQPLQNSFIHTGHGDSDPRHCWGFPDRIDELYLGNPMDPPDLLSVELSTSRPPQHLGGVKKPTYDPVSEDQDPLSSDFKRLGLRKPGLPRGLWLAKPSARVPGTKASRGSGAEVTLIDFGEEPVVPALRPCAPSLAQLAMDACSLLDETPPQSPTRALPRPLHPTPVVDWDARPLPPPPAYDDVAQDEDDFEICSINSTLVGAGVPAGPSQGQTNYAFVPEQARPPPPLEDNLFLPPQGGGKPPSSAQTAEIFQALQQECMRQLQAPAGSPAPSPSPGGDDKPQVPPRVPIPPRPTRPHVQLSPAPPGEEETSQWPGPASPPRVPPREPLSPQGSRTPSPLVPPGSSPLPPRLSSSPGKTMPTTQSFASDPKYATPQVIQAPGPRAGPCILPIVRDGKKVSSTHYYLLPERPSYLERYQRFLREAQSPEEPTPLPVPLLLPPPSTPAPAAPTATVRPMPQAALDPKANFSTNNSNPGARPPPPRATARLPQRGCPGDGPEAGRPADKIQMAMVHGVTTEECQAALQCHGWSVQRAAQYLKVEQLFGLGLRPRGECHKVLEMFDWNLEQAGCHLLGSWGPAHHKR

[17] = target: SRC (Homo sapiens (Human), UniProt P12931); assay: ActivX kinase probe assay (human PBMC); type: binding; settings: SRC, read-out: percent inhibition
[18] = target: smMLCK (Homo sapiens (Human), UniProt Q15746); assay: ActivX kinase probe assay (human PBMC); type: binding; settings: smMLCK, read-out: percent inhibition
[19] = target: IRAK4 (Homo sapiens (Human), UniProt Q9NWZ3); assay: ActivX kinase probe assay (human PBMC); type: binding; settings: IRAK4, read-out: percent inhibition
[20] = tested on: CDK11, CDK8; assay: ActivX kinase probe assay (human PBMC); type: binding
[21] = target: IRE1 (Homo sapiens (Human), UniProt O75460); assay: ActivX kinase probe assay (human PBMC); type: binding; settings: IRE1, read-out: percent inhibition
[22] = target: MST2 (Homo sapiens (Human), UniProt Q13188); assay: ActivX kinase probe assay (human PBMC); type: binding; settings: read-out: percent inhibition
[23] = tested on: MST1, MST2; assay: ActivX kinase probe assay (human PBMC); type: binding
[24] = target: GPRK6 (Homo sapiens (Human), UniProt P43250); assay: ActivX kinase probe assay (human PBMC); type: binding; settings: GPRK6, read-out: percent inhibition
[25] = target: MLK3 (Homo sapiens (Human), UniProt Q16584); assay: ActivX kinase probe assay (human PBMC); type: binding; settings: MLK3, read-out: percent inhibition
[26] = target: LATS1 (Homo sapiens (Human), UniProt O95835); assay: ActivX kinase probe assay (human PBMC); type: binding; settings: LATS1, read-out: percent inhibition
[27] = target: MST1 (Homo sapiens (Human), UniProt Q13043); assay: ActivX kinase probe assay (human PBMC); type: binding; settings: read-out: percent inhibition
[28] = target: FER (Homo sapiens (Human), UniProt P16591); assay: ActivX kinase probe assay (human PBMC); type: binding; settings: FER, read-out: percent inhibition
[29] = target: CHK2 (Homo sapiens (Human), UniProt O96017); assay: ActivX kinase probe assay (human PBMC); type: binding; settings: CHK2, read-out: percent inhibition
[30] = target: mutant G2019S LRRK2 (Homo sapiens (Human), UniProt Q5S007, G2019S); assay: LRRK2 Lantha Screen kinase assay, mutant enzyme; type: biochemical; settings: geometric mean of 2-5 determinations unless otherwise indicated (a: >=6 determinations; b: single determination)

MARK2, sequence (Q7KZI7 whole entry): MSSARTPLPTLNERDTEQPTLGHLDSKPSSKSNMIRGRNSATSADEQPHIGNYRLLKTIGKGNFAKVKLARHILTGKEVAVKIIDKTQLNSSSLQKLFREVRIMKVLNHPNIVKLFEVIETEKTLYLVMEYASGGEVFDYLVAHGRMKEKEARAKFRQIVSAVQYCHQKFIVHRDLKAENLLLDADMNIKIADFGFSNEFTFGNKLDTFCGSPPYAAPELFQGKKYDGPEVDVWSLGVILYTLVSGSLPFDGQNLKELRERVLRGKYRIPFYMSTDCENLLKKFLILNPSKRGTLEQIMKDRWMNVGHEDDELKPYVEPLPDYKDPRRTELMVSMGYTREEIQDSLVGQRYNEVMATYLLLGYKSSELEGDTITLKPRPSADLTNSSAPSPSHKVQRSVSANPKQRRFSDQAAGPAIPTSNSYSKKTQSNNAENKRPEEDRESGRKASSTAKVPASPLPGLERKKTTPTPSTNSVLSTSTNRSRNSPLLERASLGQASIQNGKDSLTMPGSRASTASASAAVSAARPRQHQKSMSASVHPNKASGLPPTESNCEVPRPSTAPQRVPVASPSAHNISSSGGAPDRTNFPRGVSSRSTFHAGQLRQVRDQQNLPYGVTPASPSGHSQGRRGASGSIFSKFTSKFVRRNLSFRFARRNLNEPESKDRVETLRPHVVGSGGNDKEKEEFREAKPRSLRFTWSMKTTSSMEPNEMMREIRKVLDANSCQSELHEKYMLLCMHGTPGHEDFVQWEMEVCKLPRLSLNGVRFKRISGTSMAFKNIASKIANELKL

Cn1cc(-c2c[nH]c3ncnc(N4CCOCC4)c23)cn1 [Example 1, 5-(1-Methyl-1H-pyrazol-4-yl)-4-(morpholin-4-yl)-7H-pyrrolo[2,3-d]pyrimidine]
inhibition at 0.1 µM ([1]; 0.1 μM): 10.1% | inhibition at 1 µM ([1]; 1 μM): 41.6% | inhibition at 0.1 µM ([2]; 0.1 μM): -0.2% | inhibition at 1 µM ([2]; 1 μM): -11.4% | inhibition at 0.1 µM ([3]; 0.1 μM): 6.2% | inhibition at 1 µM ([3]; 1 μM): 2.1% | inhibition at 0.1 µM ([4]; 0.1 μM): 18% | inhibition at 1 µM ([4]; 1 μM): 20% | inhibition at 0.1 µM ([5]; 0.1 μM): -8.1% | inhibition at 1 µM ([5]; 1 μM): -13.7% | inhibition at 0.1 µM ([6]; 0.1 μM): 3.5% | inhibition at 1 µM ([6]; 1 μM): 17% | inhibition at 0.1 µM ([7]; 0.1 μM): -0.9% | inhibition at 1 µM ([7]; 1 μM): 12.6% | inhibition at 0.1 µM ([8]; 0.1 μM): 0.6% | inhibition at 1 µM ([8]; 1 μM): 9.1% | inhibition at 0.1 µM ([9]; 0.1 μM): 34% | inhibition at 1 µM ([9]; 1 μM): 16.1% | inhibition at 0.1 µM ([10]; 0.1 μM): -6.5% | inhibition at 1 µM ([10]; 1 μM): -35.1% | inhibition at 0.1 µM ([11]; 0.1 μM): -32.8% | inhibition at 1 µM ([11]; 1 μM): -41.9% | inhibition at 0.1 µM ([12]; 0.1 μM): 5.7% | inhibition at 1 µM ([12]; 1 μM): 22.6% | inhibition at 0.1 µM ([13]; 0.1 μM): -19.6% | inhibition at 1 µM ([13]; 1 μM): -7.8% | inhibition at 0.1 µM ([14]; 0.1 μM): 0.6% | inhibition at 1 µM ([14]; 1 μM): 0.8% | percent inhibition ([15]; 0.1 μM): 1.6% | percent inhibition ([15]; 1 μM): 10.7% | inhibition at 0.1 µM ([16]; 0.1 μM): 5.2% | inhibition at 1 µM ([16]; 1 μM): -8% | inhibition at 0.1 µM ([17]; 0.1 μM): 1.5% | inhibition at 1 µM ([17]; 1 μM): 9.7% | inhibition at 0.1 µM ([18]; 0.1 μM): -11.5% | inhibition at 1 µM ([18]; 1 μM): -1.9% | inhibition at 0.1 µM ([19]; 0.1 μM): 17.7% | inhibition at 1 µM ([19]; 1 μM): 34.7% | percent inhibition ([20]; 0.1 μM): 4.4% | percent inhibition ([20]; 1 μM): 2.4% | inhibition at 0.1 µM ([21]; 0.1 μM): -1.3% | inhibition at 1 µM ([21]; 1 μM): -8% | inhibition at 0.1 µM ([22]; 0.1 μM): 10.1% | inhibition at 1 µM ([22]; 1 μM): 49.4% | percent inhibition ([23]; 0.1 μM): −14.5% | percent inhibition ([23]; 1 μM): 24.8% | inhibition at 0.1 µM ([24]; 0.1 μM): 8.9% | inhibition at 1 µM ([24]; 1 μM): 23.7% | inhibition at 0.1 µM ([25]; 0.1 μM): 1.4% | inhibition at 1 µM ([25]; 1 μM): 4.5% | inhibition at 0.1 µM ([26]; 0.1 μM): 4.2% | inhibition at 1 µM ([26]; 1 μM): -16.2% | inhibition at 0.1 µM ([27]; 0.1 μM): 13.2% | inhibition at 1 µM ([27]; 1 μM): 50.8% | inhibition at 0.1 µM ([28]; 0.1 μM): -7.3% | inhibition at 1 µM ([28]; 1 μM): -17.9% | inhibition at 0.1 µM ([29]; 0.1 μM): 0.9% | inhibition at 1 µM ([29]; 1 μM): 17.7% | IC50 [30]: 36 nM
